From patent US7598275B2, “Nicotine in therapeutic angiogenesis and vasculogenesis” (priority 1999, dated 2009)

Columns and labels:
[1] = test system: endothelial cells; assay: Endothelial cell (EC) migration assay; assay type: cell-based
From the text: In this experiment, the effects of VEGF, FGF and nicotine in an endothelial cell (EC) migration assay were observed. The EC migration assay involves growing a confluent endothelial monolayer, and then scraping away half of the cells. The number of endothelial cells that migrate over time into the denuded region was observed. Unstimulated cells will migrate into the region. Angiogenic agents will accelerate this migration.
In this histogram shown in FIG. 8, the number of migrating cells is expressed as a percentage of the number of endothelial cells migrating into the region under unstimulated conditions.

[2] = test system: C57BL/6J mice
Description: Murine Ischemic Hindlimb Model of Peripheral Arterial Disease (PAD). Mice were anesthetized with 4% chloral hydrate [intraperitoneal administration (i.p.), 0.1 cc/10 g body weight). The medial surface of both hindlimbs were shaved and then cleaned with betadine solution. A 1.5-cm longitudinal incision was performed, extending from the knee to the inguinal ligament. Through this incision, the superficial femoral artery was dissected free along its length. After the distal ends of both the external iliac and superficial femoral arteries were ligated with 7.0 (Ethicon), complete excision of the femoral artery was performed. An additional set of mice underwent sham operation. The incisions were then closed with discontinuous stitches of 5.0 silk suture (Ethicon). Ampicillin (1 mg/10 gm body weight) intraperitoneal injection was administered after surgical procedure.
Tissue Preparation. Three weeks after surgery, mice were euthanized with an overdose of 4% chloral hydrate (i.p) and cervical dislocation, and the adductor and semimembranous muscles were collected for capillary density assessment. Briefly, a longitudinal incision in the medial thigh was made to expose the entire hindlimb muscle. The adductor and semimembranous muscles were removed and immediately frozen in OCT. Subsequently, sections 5 μm were taken from the mid-region of each muscle in a transverse orientation. The sections were air dried and fixed in acetone.
Capillary Densitometry. Immunohistochemistry was performed using an alkaline phosphatase assay to identify the endothelial cells. An eosin counterstain was used to differentiate myocytes. Capillaries and myocytes were identified and counted using light microscopy (20×). For each section, four different fields were selected and the total number of capillaries and myocytes per field determined. These values were averaged to provide a determination of capillary density for each experimental limb. To ensure that value for capillary density was not overestimated due to muscle atrophy, or underestimated due to interstitial edema, capillary density was expressed as a ratio of capillaries to myocytes present in the same field.
Daily intramuscular injections of nicotine solution or vehicle were administered (50 μl ) for a period of three weeks.

[3] = test system: C57BL/6J mice; assay: Disc angiogenesis system (DAS), fibrovascular growth into implanted disc; assay type: in vivo; settings: for angiogenesis in comparison to vehicle: locally in disc pellet: bFGF 20 mcg, Del-1 0.2 M, nicotine 10^-6 M; for effect on nicotine-induced fibrovascular growth (systemic nicotine) / effect on nicotine-induced fibrovascular growth (local nicotine): oral supplementation: LNNA 6 mg/ml, indomethacin 20 mcg/ml; for effect on nicotine-induced fibrovascular growth (systemic nicotine): nicotine in drinking water; for effect on nicotine-induced fibrovascular growth (local nicotine): nicotine inside the DAS
From the text: To study whether nicotine induces angiogenesis in vivo, we employed the disc angiogenesis system (DAS) (Kowalski et al. (1992) Exp Mol Pathol 56(1):1-19; Fajardo et al. (1998) Lab Invest 58:718-7244).
Preparation of the disc. The DAS consisted of a disc (11 mm in diameter and 1 mm thickness) made of a polyvinyl alcohol sponge (Kanebo PVA, RippeyCo., Santa Clara, Calif.). Both sides were covered with nitrocellulose cell-impermeable filters (Millipore filters, […] in pore diameter, Millipore, SF, Calif.) of the same diameter as the sponge disc, fixed to the sponge using Millipore glue#1 (xx70000.00, Millipore). As a result, cells (and thus vessels) could penetrate or exit only through the rim of the disc (Kowalski et al. (1992) Exp Mol Pathol 56(1):1-19; Fajardo et al. (1998) Lab Invest 58:718-7244).
In order to study the local effect of nicotine on angiogenesis, nicotine was placed in a pellet which was added directly to the disc. Briefly, a 1.5-mm core (pellet) was cut from the disc center. Both the pellets and discs were sterilized prior to assembly in a laminar flow hood. The pellet was loaded with up to 20 mcl of the nicotine solution and subsequently air-dried. We placed in the disc pellets with either vehicle (PBS, Sigma, Chemical Co., St Louis, Mo., n=5) or nicotine (10^-6 M, Aldrich Chemical Company, Milwaukee, Wis., n=5) to study the effects of locally administered nicotine. For comparison, in some cases basic fibroblast growth factor (bFGF; 20 mcg) or Del-1 protein (0.2 M) was added to the pellet, rather than nicotine. Both bFGF and Del-1 are known to induce angiogenesis. The pellet was then coated with ethylene-vinyl acetate co-polymer (Elvax, Dupont, Chemcentral Corp., Chicago, Ill.) which would permit slow release of the nicotine from the pellet into the disc. The pellet was then re-inserted into the disc before sealing the disc with the millipore filters.
To study the systemic effects of nicotine, in some cases the animals were administered nicotine in their drinking water (see below).
Implantation of the disc. The mice were anesthetized with 4% chloralhydrate [intraperitoneal administration (i.p.), 0.1 cc/10 g body weight]. The flanks and posterior surface of the thorax were shaved and cleaned with saturated 70% isopropyl alcohol. A 2-cm incision was made in the skin of the flank contra-lateral to the implantation site. Blunt dissection through the subcutaneous tissue produced a channel into which the saline moistened disc was inserted. The skin was closed with 5.0 silk suture (Kowalski et al. (1992) Exp Mol Pathol 56(1):1-19; Fajardo et al. (1998) Lab Invest 58:718-7244).
Disc removal and preparation. Two weeks after disc implantation, the mice were sacrificed with an overdose of 4% chloral hydrate (i.p.) and cervical dislocation. A careful incision was made next to the skin overlying the implanted disc, and the disc was gently removed from the implantation site. Attached tissue was carefully detached from the disc. After removing the disc, one filter was separated from the disc. Discs were then fixed in 10% formalin and embedded flat in paraffin. Subsequently, […] sections were made in a plane through the center of the disc and parallel to the disc surface.
Quantitation of results. The disc sections were stained with H&E for light microscopy and histomorphometric measurement of radial growth, and stained with toluidine blue for quantitative determination of total area of fibrovascular growth. Using a video microscope and a computer assisted digital image analysis system (NIH Image 1.59b9), the entire area of fibrovascular growth in the toluidine blue stained disc was calculated and expressed in mm^2. As described in a previous study, total fibrovascular growth area is directly proportional to the total area of the disc occupied by blood vessels (Kowalski et al. (1992) Exp Mol Pathol 56(1):1-19; Fajardo et al. (1998) Lab Invest 58:718-7244).

[4] = VEGF 1 ng/ml, FGF, nicotine (FIG. 8)
[5] = highest dose (3200 ng/kg = 3.2 μg/kg) i.m. daily for three weeks

## CN1CCC[C@H]1c1cccnc1 [nicotine, S-3-(1-methyl-2-pyrrolidinyl)pyridine]
[1]; [4]
  EC migration, number of migrating cells relative to unstimulated conditions: same degree
[2]; 0.03 μg/kg i.m. daily for three weeks, vehicle control 0.35
  capillary density in the ischemic limb: 0.67 capillaries/myocyte
[2]; [5]
  angiogenic response in the ischemic limb at the highest dose: angiogenesis was not increased
  toxicity at the highest dose (interstitial edema and myocyte necrosis): some toxicity was observed
[2]; untreated non-ischemic limb of animals given i.m. nicotine in the ischemic limb
  angiogenic effect in non-ischemic hindlimbs: no angiogenic effect was detected
[3]; local effects in the disc angiogenesis system
  angiogenic potency relative to growth factors tested in DAS (Del1, bFGF): as or more potent
[3]; local nicotine, 10^-6 M in pellet inside the disc, basal about 10 mm^2
  area of fibrovascular growth into the disc: about 20 mm^2
[3]
  angiogenesis in comparison to vehicle: increased angiogenesis to the same degree
[3]; systemic nicotine (drinking water) compared with nicotine in disc
  angiogenesis, systemic versus local nicotine administration: greater than local nicotine administration
[3]; systemic nicotine (drinking water), FIG. 4
  angiogenesis, systemic administration versus locally administered bFGF and Del-1: much greater degree
[3]; systemic nicotine, 60 mcg/ml in drinking water, disc removed two weeks after implantation, basal somewhat greater than 10 mm^2
  area of fibrovascular growth into the disc: 35 mm^2

## NC(=NCCC[C@H](N)C(=O)O)N[N+](=O)[O-] [LNNA, L, nitro-arginine]
[3]
  effect on nicotine-induced fibrovascular growth (systemic nicotine): blocked
  effect on nicotine-induced fibrovascular growth (local nicotine): blocked the effects of nicotine

## bFGF: basic fibroblast growth factor, known to induce angiogenesis
[3]
  angiogenesis in comparison to vehicle: increased angiogenesis to the same degree

## VEGF
[1]; [4]
  EC migration, number of migrating cells relative to unstimulated conditions: increases EC migration to the same degree as FGF or Nicotine
[1]; high dose VEGF 10 ng/ml
  EC migration, number of migrating cells relative to unstimulated conditions: greatest response

## CN(C)C(=O)Oc1cccc([N+](C)(C)C)c1 [neostigmine]
[1]; 10^−6 M alone, relative to unstimulated cells
  increase of EC migration: over 50%

## COc1ccc2c(c1)c(CC(=O)O)c(C)n2C(=O)c1ccc(Cl)cc1 [indomethacin]
[3]
  effect on nicotine-induced fibrovascular growth (systemic nicotine): blocked
  effect on nicotine-induced fibrovascular growth (local nicotine): blocked the effects of nicotine

B1: Del1: Del-1 protein, known to induce angiogenesis (protein, UniProt O43854 24-480, looked up)
EGF-like repeat and discoidin …: DICDPNPCENGGICLPGLADGSFSCECPDGFTDPNCSSVVEVASDEEEPTSAGPCTPNPCHNGGTCEISEAYRGDTFIGYVCKCPRGFNGIHCQHNINECEVEPCKNGGICTDLVANYSCECPGEFMGRNCQYKCSGPLGIEGGIISNQQITASSTHRALFGLQKWYPYYARLNKKGLINAWTAAENDRWPWIQINLQRKMRVTGVITQGAKRIGSPEYIKSYKIAYSNDGKTWAMYKVKGTNEDMVFRGNIDNNTPYANSFTPPIKAQYVRLYPQVCRRHCTLRMELLGCELSGCSEPLGMKSGHIQDYQITASSIFRTLNMDMFTWEPRKARLDKQGKVNAWTSGHNDQSQWLQVDLLVPTKVTGIITQGAKDFGHVQFVGSYKLAYSNDGEHWTVYQDEKQRKDKVFQGNFDNDTHRKNVIDPPIYARHIRILPWSWYGRITLRSELLGCTEEE
[3]
  angiogenesis in comparison to vehicle: increased angiogenesis to the same degree
